Measured values published in patent publication US7087623B2, “Thiazole and other heterocyclic ligands for mammalian dopamine, muscarinic and serotonin receptors and transporters, and methods of use thereof” (Sepracor Inc., priority 2001, dated 2006).
Where two headings read alike, the source gives them in different places.

Legend:
[1] = target: T1, human muscarinic M4 receptor (Homo sapiens, UniProt P08173); test: Binding to human muscarinic M4 receptors ([3H]N-methylscopolamine)
T1 construct: expressed in transfected cells; host or cells: BSR-M4H
T1 sequence (P08173 1-479): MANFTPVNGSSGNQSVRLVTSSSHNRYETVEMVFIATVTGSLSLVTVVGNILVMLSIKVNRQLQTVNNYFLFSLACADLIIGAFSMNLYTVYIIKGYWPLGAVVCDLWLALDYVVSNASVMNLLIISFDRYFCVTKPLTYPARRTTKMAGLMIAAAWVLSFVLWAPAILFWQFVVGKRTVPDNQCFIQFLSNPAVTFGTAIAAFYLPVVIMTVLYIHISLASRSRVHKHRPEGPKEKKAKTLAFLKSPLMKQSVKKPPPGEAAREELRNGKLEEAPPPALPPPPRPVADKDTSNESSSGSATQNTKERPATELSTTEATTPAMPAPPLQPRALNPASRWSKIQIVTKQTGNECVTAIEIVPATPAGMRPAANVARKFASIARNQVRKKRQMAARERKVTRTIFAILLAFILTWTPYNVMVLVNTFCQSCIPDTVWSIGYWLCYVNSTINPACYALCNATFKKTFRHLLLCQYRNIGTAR
Description: (§1) This assay measures binding of [^3H]N-methylscopolamine to human muscarinic M4 receptors. BSR-M4H cells transfected with a plasmid encoding the human muscarinic M4 receptor were used to prepare membranes in modified Tris-HCl pH 7.4 buffer using standard techniques. A 5 μg aliquot of membrane was incubated with 0.29 nM [^3H]N-methylscopolamine for 60 minutes at 25° C. Non-specific binding was estimated in the presence of 1 μM atropine. Membranes were filtered and washed 3 times and the filters are counted to determine [^3H]N-methylscopolamine specifically bound. See Buckley, N. J., Bonner, T. I., Buckley, C. M. and Brann, M. R. Antagonist binding properties of five cloned muscarinic receptors expressed in CHO-K1 cells. Mol. Pharmacol. 35: 469–476, 1989.
(§2) The human 5-HT2a and 5-HT2b screens were conducted according to Bonhaus, D. W. et al. Br. J. Pharmacol. 1995, 115, 622. The human […], W. A. et al. J. Neurochem. 1997, 69, 1449. The human 5-HT6 screen was conducted according to Monsama, F. J. et al. Mol. Pharmacol. 1993, 43, 320. The assay to human D3 receptors was conducted according to Sokoloff, P. et al. Nature 1990, 347;146. The human dopamine transporter assay was conducted according to Gu, H. et. al. J. Biol. Chem. 1994, 269 (10);7124; and Giros, B. et al. Trends. Pharmacol. Sci. 1993, 14: 43. The human muscarinic M1–M4 screens were conducted according to Buckley N. J. et al. Mol. Pharmacol. 1989, 35:469.
(§3) The human dopamine transporter assay was conducted according to Gu, H. et. al. J. Biol. Chem. 1994, 269 (10);7124 and Giros, B. et al. Trends. Pharmacol. Sci. 1993, 14: 43. The human muscarinic M1–M4 screens were conducted according to Buckley N. J. et al. Mol. Pharmacol. 199, 35:469

[2] = target: T2, human dopamine D3 receptor (Homo sapiens, UniProt P35462); test: Radioligand binding assay, human dopamine D3 receptors ([3H]Spiperone)
T2 construct: expressed in transfected cells; host or cells: CHO
T2 sequence (P35462 whole entry): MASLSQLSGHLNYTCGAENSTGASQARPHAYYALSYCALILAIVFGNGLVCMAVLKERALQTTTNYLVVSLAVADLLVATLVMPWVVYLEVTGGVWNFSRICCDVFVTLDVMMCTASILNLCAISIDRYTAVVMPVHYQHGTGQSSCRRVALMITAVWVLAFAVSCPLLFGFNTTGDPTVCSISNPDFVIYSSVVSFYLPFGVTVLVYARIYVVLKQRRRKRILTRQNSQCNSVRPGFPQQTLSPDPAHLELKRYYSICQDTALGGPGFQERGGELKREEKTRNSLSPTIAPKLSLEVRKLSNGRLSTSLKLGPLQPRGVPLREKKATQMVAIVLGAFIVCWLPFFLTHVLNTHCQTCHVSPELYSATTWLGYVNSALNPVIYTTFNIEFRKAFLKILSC

[3] = target: T3, human serotonin 5-HT6 receptor (Homo sapiens, UniProt P50406); test: Radioligand binding assay, human 5-HT6 receptors ([3H]LSD)
T3 construct: expressed in transfected cells; host or cells: HeLa/E6-7
T3 sequence (P50406 whole entry): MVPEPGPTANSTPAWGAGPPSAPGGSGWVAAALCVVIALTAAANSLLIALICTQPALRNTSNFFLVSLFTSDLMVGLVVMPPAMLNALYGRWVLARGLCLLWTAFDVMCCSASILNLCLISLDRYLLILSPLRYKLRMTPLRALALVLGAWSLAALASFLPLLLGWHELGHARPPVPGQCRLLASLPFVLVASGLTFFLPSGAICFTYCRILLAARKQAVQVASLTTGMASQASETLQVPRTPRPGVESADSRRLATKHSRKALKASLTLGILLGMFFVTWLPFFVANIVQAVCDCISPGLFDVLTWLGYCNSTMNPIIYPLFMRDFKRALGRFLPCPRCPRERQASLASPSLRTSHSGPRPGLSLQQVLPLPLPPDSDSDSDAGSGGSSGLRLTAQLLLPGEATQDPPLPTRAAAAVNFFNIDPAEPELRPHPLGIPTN
Method in brief: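 Membranes from HeLa/E6–7 cells stably expressing human 5-HT6, in modified Tris-HCl pH 7.4, incubated (30 μg) with 1.5 nM [3H]LSD for 120 min at 37° C. Non-specific binding defined with 5 μM 5-HT; bound ligand measured by filtration and counting.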

[4] = target: T4, human muscarinic M3 receptor (Homo sapiens, UniProt P20309); test: Binding to human muscarinic M3 receptors ([3H]N-methylscopolamine)
T4 construct: expressed in transfected cells; host or cells: BSR-M3H
T4 sequence (P20309 whole entry): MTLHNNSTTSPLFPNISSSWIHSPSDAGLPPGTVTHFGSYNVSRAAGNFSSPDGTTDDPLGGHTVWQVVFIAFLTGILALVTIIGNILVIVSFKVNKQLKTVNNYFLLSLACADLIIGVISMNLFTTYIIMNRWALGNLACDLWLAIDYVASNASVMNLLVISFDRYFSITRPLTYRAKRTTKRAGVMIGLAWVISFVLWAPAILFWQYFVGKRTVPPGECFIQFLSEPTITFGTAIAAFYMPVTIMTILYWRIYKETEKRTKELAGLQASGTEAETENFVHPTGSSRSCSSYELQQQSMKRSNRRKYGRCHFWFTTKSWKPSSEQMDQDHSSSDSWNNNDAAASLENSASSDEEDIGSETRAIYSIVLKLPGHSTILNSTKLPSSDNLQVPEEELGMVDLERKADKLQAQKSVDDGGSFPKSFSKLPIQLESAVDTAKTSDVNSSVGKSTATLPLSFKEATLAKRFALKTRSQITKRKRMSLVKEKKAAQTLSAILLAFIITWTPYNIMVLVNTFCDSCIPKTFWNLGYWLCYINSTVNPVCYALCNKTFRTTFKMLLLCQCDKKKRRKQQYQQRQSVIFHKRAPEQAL
Description: as §1, with “muscarinic M3” for “muscarinic M4”, “receptors. BSR-M3H” for “receptors. BSR-M4H”, “filters were” for “filters are”
as §2, §3

[5] = human, Example 100 table, read-out: IC50 (nM) M4
[6] = human, Example 100 table, read-out: IC50 (nM) D3
[7] = human, Example 100 table, read-out: IC50 (nM) 5-HT6
[8] = human, Example 100 table, read-out: IC50 (nM) M3
[9] = human, Example 101 table, read-out: IC50 (nM) M4
[10] = Example 20 table, read-out: IC50 (nM) Against Human D3 Receptors
[11] = human 5-HT6, Example 16 table, read-out: IC50 (nM) 5-HT6
[12] = human, Example 101 table, read-out: IC50 (nM) M3

Row | SMILES | IC50 [1, 5] | IC50 [2, 6] | IC50 [3, 7] | IC50 [4, 8] | IC50 [1, 9] | IC50 [2, 10] | IC50 [3, 11] | IC50 [4, 12] | also measured
1 | CN1CCCC1CCNc1nc(C2(c3ccccc3F)CCCCC2)cs1 (racemic) [Compound 128, {4-[1-(2-fluorophenyl)-cyclohexyl]-thiazol-2-yl}-[2-(1-methyl-pyrrolidin-2-yl)-ethyl]-amine] | < 1000 nM | < 100 nM | < 100 nM | < 1000 nM | – | – | – | – | –
2 | CN1CCCC1CCNc1nc(C2(c3ccccc3F)CCCCC2)cs1 (single isomer, unassigned) [Compound 130, {4-[1-(2-fluorophenyl)-cyclohexyl]-thiazol-2-yl}-[2-(1-methyl-pyrrolidin-2-yl)-ethyl]-amine] | > 1000 nM | < 100 nM | < 100 nM | < 1000 nM | – | – | – | – | –
3 | CN1CCN(c2nc(C3(c4csc5ccc(Cl)cc45)CCOCC3)cs2)CC1 [Compound 36] | – | – | – | – | > 1000 nM | < 1000 nM | < 100 nM | > 1000 nM | –
4 | Clc1ccc(C2(c3csc(N4CCNCC4)n3)CCOCC2)cc1 [Compound 37] | – | – | – | – | < 1000 nM | < 1000 nM | < 100 nM | < 500 nM | –
5 | CN1CCN(c2nc(C3(c4ccccc4)CCOCC3)cs2)CC1 [Compound 59] | – | – | – | – | – | – | – | – | IC50 [1]: > 1000 nM; IC50 ([2]; IC50 (nM) Against Human D3 Receptors, Example 20 table): > 1000 nM; IC50 ([3]; IC50 (nM) 5-HT6, human 5-HT6, Example 16 table): < 100 nM; IC50 [4]: > 1000 nM
6 | CN1CCN(c2nc(C3(c4cccc(Cl)c4)CCOCC3)cs2)CC1 [Compound 63] | – | – | – | – | > 1000 nM | < 1000 nM | < 100 nM | > 1000 nM | –
7 | CN1CCN(c2nc(C3(c4ccccc4F)CCCCC3)cs2)CC1 [Compound 83] | – | – | – | – | < 1000 nM | < 100 nM | < 100 nM | < 500 nM | –
8 | CN1CCN(c2nc(C3(c4ccccc4F)CCCC3)cs2)CC1 [Compound 93] | – | – | – | – | < 500 nM | < 1000 nM | < 100 nM | < 100 nM | –
9 | CN1CCN(c2nc(C3(c4ccccc4F)CCOCC3)cs2)CC1 [Compound 112] | > 1000 nM | < 1000 nM | < 100 nM | > 1000 nM | – | – | – | – | –
